Columns and labels:
HeLa cells [1] = test: Visual assessment of cytotoxicity, HeLa cells; assay type: cell-based, human; conditions: for rounded up cells in mitosis (visual assessment): HeLa cells (paclitaxel sensitive), 24-well plate (FIG. 5A)
From the text: (§1) The cytotoxicity of the compounds were initially assessed visually and by photomicroscopy. Visual inspection of dose response experiments over a protracted time course provides valuable information on the responses of cells to the treatments. Phase contrast microscopy allows one to assess whether cells are undergoing mitotic arrest and/or apoptosis by their altered morphology. Mitotic cells rounded up with smooth membranes and often condensed chromosomes aligned at a metaphase plate were clearly visible. […] Cells were plated in 24-well plates and allowed to attach and stabilize overnight. Cells were then treated with compounds in dose response and photomicrographs were taken at various time points over 2 days. Photographs were assembled in composite figures showing dose response at a given time point.

HeLa cells [2] = test: Clonogenic viability assay, HeLa cells; assay type: cell-based, human; conditions: for colony formation (clonogenic cytotoxicity): Hela cells (paclitaxel sensitive), colonies counted after 10 days (FIG. 6A)
Experimental: (§2) Clonogenic assays are used to determine the impact of a test compositions on the ability of cells to replicate. Cells are plated at cloning densities (100 and 500 cells per well in a 6-well plate; 3 wells of each cell number), and allowed to attach and stabilize overnight. Cells are then treated in dose-response experiments with test composition(s) (one concentration of test composition per plate) and incubated for 7-10 days to allow colonies of >30 cells to form. Colonies are stained with crystal violet and counted. Colony forming ability is then calculated as a percent of control by setting the mean number of colonies per well of cells treated with vehicle (0.1% DMSO) equal to 100 percent.

SK-MEL-28 cells [3] = test: Visual assessment of cytotoxicity, SK-MEL-28 cells; assay type: cell-based, human; conditions: for rounded up cells in mitosis (visual assessment): SK-MEL-28 cells (paclitaxel resistant), 24-well plate (FIG. 5B)
From the text: as §1

HeLa cells [4] = test: AlamarBlue viability assay, HeLa cells; assay type: cell-based, human; conditions: for effectiveness at reducing viability (Alamar Blue), rank among T-8, T-13, T-14: 32 h (FIG. 8A)
Experimental: (§3) The test compositions in Table 1 were tested first for their ability to induce cytotoxicity in dose response curves using an AlamarBlue assay using two cancer cell lines.
(§4) The method used for the viability assay follows. Cells were seeded in 96-well plates for measuring cell growth during treatment by the tested compound using the AlamarBlue fluorescence assay (Biosource International, Inc., Camarillo, Calif.). AlamarBlue (resazurin) is a soluble, non-toxic dye used to monitor the functional electron transport chain of a viable cell by reduction of the dye from its oxidized, non-fluorescent (blue) state to the reduced, fluorescent (pink) state (resorufin). AlamarBlue was added six hours prior to the desired time point in an amount equal to 10% (v/v) of the culture volume, and the plates were returned to the incubator. At the end of the six hour incubation, the amount of AlamarBlue reduction was measured using a fluorometric plate reader ([…]). The plate reader was blanked by reading the fluorescence of cell free medium supplemented with AlamarBlue (States et al., Toxicol. Appl. Pharmacol., Vol. 180, pages 83-91 (2002)). Data are reported as a percentage of the untreated control. Three independent experiments were analyzed and results are shown as average±standard deviation.

A375 cells [5] = test: AlamarBlue viability assay, A375 cells; assay type: cell-based, human; conditions: 32 h (FIG. 8B)
Experimental: as §3, §4

HeLa cells [6] = test: Mitotic index and mitotic catastrophe index determination (mitotic spread assay), HeLa cells; assay type: cell-based, human; conditions: for percent of nuclei present as clean mitotic spreads (mitotic index) / percentage of nuclei presenting as mitotic catastrophe: 60 μM T-8 or 10 μM T-3, 24 h, vs DMSO control, p<0.05 (FIG. 4)
Experimental: (§5) Cells were harvested for mitotic index analysis by trypsinization. Media, wash, and trypsinized cells were collected together and centrifuged to pellet all the cells. Cells were resuspended in 150 mL serum free media and 2.5 mL 0.4% KCl was added. The suspension was incubated for 10 minutes at 37° C. Methanol:acetic acid fixative solution (3:1, v/v) was then added to 2% (v/v) and cells were collected by centrifugation. Cells were resuspended in 2.5 mL fixative solution and fixed at room temperature for 20 minutes. Samples were centrifuged; pellets were resuspended in 0.5 mL fixative and chilled on ice for one hour. Aliquots of the suspensions were dropped onto slides (two slides per sample), air dried, and stained with Wright Giemsa solution (States et al., Toxicol. Appl. Pharmacol., Vol. 180, pages 83-91 (2002); Taylor et al., J. Pharmacol. Exp. Ther., Vol. 318, pages 142-151 (2006)). Slides were examined under a microscope and at least 200 cells were counted on each slide for determination of mitotic index and mitotic catastrophe index. Only cells with distinct interphase nuclei appearance (panel Q from FIG. 2), metaphase spread appearance (panel S from FIG. 2), or mitotic catastrophe appearance (panel T from FIG. 2) were counted. Mitotic index and mitotic catastrophe index were determined using the following formula: Mitotic index=(cells with mitotic spread appearance as exemplified in panel S of FIG. 2)/(total number of counted cells) Mitotic catastrophe index=(cells with mitotic catastrophe appearance as exemplified in panel T of FIG. 2)/(total number of counted cells)
Three independent experiments were analyzed. DAPI stain in mounting media (Molecular Probes) added directly to the slides was used to identify DNA in interphase nuclei, mitotic spreads, mitotic catastrophe, and nuclear fragmentation by fluorescence microscopy.
Test compositions T-1 to T-9 in Table 1 were tested for their ability to induce mitotic arrest using a mitotic spread assay because it can also be used to score for mitotic catastrophe (Taylor et al., J. Pharmacol. Exp. Ther., Vol. 318, Pages 142-151 (2006); Taylor et al., Toxicol. Appl. Pharmacol., Vol. 230, Pages 235-246 (2008)). […] In these tests, a single concentration of each test composition was tested based on cytotoxicity results of FIG. 1 and on results of observational studies to determine the dose and time course of morphological changes induced (data not shown). The concentrations chosen were the minimum concentrations required to induce <10% survival and morphological changes at 16-24 hours.

SK-MEL-28 cells [7] = test: Clonogenic viability assay, SK-MEL-28 cells; assay type: cell-based, human; conditions: SK-MEL-28 cells (paclitaxel resistant); colonies counted after 10 days (FIG. 6B)
Experimental: as §2

A375 cells [8] = test: Mitotic index and mitotic catastrophe index determination (mitotic spread assay), A375 cells; assay type: cell-based, human; conditions: selected concentrations (1-10 μM), eighteen hours, among T-1 to T-9 (FIG. 3)
Experimental: as §5, with “Aliquots of the suspensions were dropped onto slides (two slides per sample), air dried, and stained with Wright Giemsa solution (States et al., Toxicol. Appl. Pharmacol., Vol. 180, pages 83-91 (2002); Taylor et al., J. Pharmacol. Exp. Ther., Vol. 318, pages 142-151 (2006)).” left out
Three independent experiments were analyzed. […]

tGM24 cells [9] = test: AlamarBlue viability assay, tGM24 cells; assay type: cell-based, human; conditions: 32 h (FIG. 10)
Experimental: as §4

GM0637 cells [10] = test: Visual assessment of cytotoxicity, GM0637 cells; assay type: cell-based; conditions: GM0637 (SV40-transformed human skin fibroblasts); 49 h (FIG. 9)
From the text: as §1

SK-MEL-28 cells [11] = test: AlamarBlue viability assay, SK-MEL-28 cells; assay type: cell-based, human; conditions: 32 h (FIG. 10)
Experimental: as §4

tGM24 cells [12] = test: Visual assessment of cytotoxicity, tGM24 cells; assay type: cell-based, human
From the text: as §1

GM0637 cells [13] = test: AlamarBlue viability assay, GM0637 cells; assay type: cell-based, human; conditions: 32 h (FIG. 10)
Experimental: as §4

[14] = tGM24 normal diploid cells, 49 h (FIG. 9)

| SMILES | rounded up cells in mitosis (visual assessment) (HeLa cells [1]) | colony formation (clonogenic cytotoxicity) (HeLa cells [2]) | rounded up cells in mitosis (visual assessment) (SK-MEL-28 cells [3]) | effectiveness at reducing viability (Alamar Blue), rank among T-8, T-13, T-14 (HeLa cells [4]) | effectiveness at reducing viability (Alamar Blue), rank among T-8, T-13, T-14 (A375 cells [5]) | colony formation (clonogenic cytotoxicity) (SK-MEL-28 cells [7]) | also measured |
| --- | --- | --- | --- | --- | --- | --- | --- |
| COc1cccc(NC2=NC3(CCCCC3)N=C(N)N2)c1 [T-11] | less effect | decreased colony formation | less effect | – | – | – | relative effectiveness in decreasing colony formation (HeLa cells [2]; Hela cells, among T-3, T-8, T-10, T-11 (FIG. 6A)): least effective |
| CC(C)NCC(O)COCCOc1ccc(Cl)cc1.Cl (racemic) [T-14] | – | – | – | least efficacy | least efficacy | – | – |
| CCCCOc1ccc(NC2=NC3(CCCCC3)N=C(N)N2)cc1 [T-3] | accumulate | decreased colony formation | accumulate | – | – | decreased colony formation | percent of nuclei present as clean mitotic spreads (mitotic index) (HeLa cells [6]): increased; percentage of nuclei presenting as mitotic catastrophe (HeLa cells [6]): higher percentage; mitotic index (HeLa cells [6]; selected concentrations (1-10 μM), twice the concentration used for A375, eighteen hours, among T-1 to T-9 (FIG. 3)): highest mitotic index; mitotic index (A375 cells [8]): highest mitotic index |
| CCc1ccc(OCCOCC(O)CNC2CCCC2)cc1.Cl (racemic) [T-13] | – | – | – | followed by T-13 | followed by T-13 | – | – |
| Cl.OC(CNC1CCCC1)COCCOc1ccc(Br)cc1 (racemic) [T-8] | – | decreased colony formation | – | most effective | most effective | decreased colony formation | accumulation of mitotic cells and apoptotic cells (visual assessment) (HeLa cells [1]; HeLa (paclitaxel sensitive human cervical carcinoma), 49 h (FIG. 9)): accumulated; cytotoxicity (Alamar Blue), sensitivity compared across cell lines (tGM24 cells [9]): relatively resistant; accumulation of mitotic cells and apoptotic cells (visual assessment) (GM0637 cells [10]): accumulated; cytotoxicity (Alamar Blue), sensitivity compared across cell lines (SK-MEL-28 cells [11]): moderate sensitivity; selectivity for carcinoma cells and transformed cells compared to normal diploid cells (tGM24 cells [12]; SK-MEL-28, HeLa, GM0637 vs tGM24, visual assessment (FIG. 9)): selectivity of T-8 for carcinoma cells and transformed cells; accumulation of mitotic cells and apoptotic cells (visual assessment) (tGM24 cells [12]; tGM24 (telomerase immortalized human diploid skin fibroblasts), 49 h (FIG. 9)): not in tGM24; increase in cell number (visual assessment) (tGM24 cells [12]; tGM24, 49 h (FIG. 9)): less apparent; cell death of normal diploid cells (visual assessment) (tGM24 cells [12]; [14]): not observed; growth of normal diploid cells (visual assessment) (tGM24 cells [12]; [14]): appeared to be inhibited; percent of nuclei present as clean mitotic spreads (mitotic index) (HeLa cells [6]): decreased; percentage of nuclei presenting as mitotic catastrophe (HeLa cells [6]): higher percentage; cytotoxicity (Alamar Blue), sensitivity compared across cell lines (GM0637 cells [13]): moderate sensitivity; cytotoxicity (Alamar Blue), sensitivity compared across cell lines (HeLa cells [4]; 32 h (FIG. 10)): most effective; accumulation of mitotic cells and apoptotic cells (visual assessment) (SK-MEL-28 cells [3]; SK-MEL-28 (paclitaxel resistant human melanoma), 49 h (FIG. 9)): accumulated |
| COc1ccc(NC2=NC3(CCCC3)N=C(N)N2)cc1 [T-12] | less effect | – | less effect | – | – | – | – |
| CCCCOc1ccc(NC2=NC3(CCCC3)N=C(N)N2)cc1 [T-10] | at slightly higher concentrations | decreased colony formation | at slightly higher concentrations | – | – | decreased colony formation | – |

Source: patent publication US10849863B2, “Compounds for treating cancer, for administering, and for pharmaceutical compositions” (UNIVERSITY OF LOUISVILLE RESEARCH FOUNDATION, INC., priority 2011, dated 2020)
